Data reported in ChEMBL document CHEMBL6182931, “Chemical Evolution of Aplithianine Class of Serine/Threonine Kinase Inhibitors” (J Med Chem, 2025).
Activity calls are given as the source filed them. No cut-off for these calls is given here.

Legend:
[1] = Inhibition of DNAJB1-PKAcalpha (unknown origin) using biotinylated-peptide substrate CREB incubated for 45 mins in presence of ATP and cAMP by ELISA; parameters: species or system Homo sapiens
[2] = tested on: Panel NCI-60 (60 carcinoma cell lines); experiment: Antiproliferative activity against human Panel NCI-60 (60 carcinoma cell lines) assessed as growth inhibition; assay type: functional
[3] = tested on: OVCAR-4; experiment: Antiproliferative activity against human OVCAR-4 cells assessed as growth inhibition; assay type: functional, cell-based
[4] = tested on: MOLT-4; experiment: Antiproliferative activity against human MOLT-4 cells assessed as growth inhibition; assay type: functional
[5] = tested on: MDA-MB-468; experiment: Antiproliferative activity against human MDA-MB-468 cells assessed as growth inhibition; assay type: functional, cell-based
[6] = tested on: LOX IMVI; experiment: Antiproliferative activity against human LOX IMVI cells assessed as growth inhibition; assay type: functional
[7] = tested on: SR; experiment: Antiproliferative activity against human SR cells assessed as growth inhibition; assay type: functional
[8] = tested on: NCI/ADR-RES; experiment: Antiproliferative activity against human NCI/ADR-RES cells assessed as growth inhibition; assay type: functional, cell-based
[9] = Aqueous solubility of compound in PBS at pH 7.4 by shake-flask method; assay type: physicochemical
[10] = target: Albumin (Homo sapiens, UniProt P02768); experiment: Binding affinity to human serum albumin assessed as protein binding at 10 uM by equilibrium dialysis technique relative to control; assay type: ADME; conditions: isolated protein
[11] = Apparent permeability across apical to basolateral side in human Caco-2 cells at 10 uM; assay type: ADME, cell-based; conditions: caco-2, 10 µM
[12] = Apparent permeability across basolateral to apical side in human Caco-2 cells at 10 uM; assay type: ADME, cell-based; conditions: caco-2, 10 µM
[13] = Efflux ratio of apparent permeability across basolateral to apical side over apical to basolateral side in human Caco-2 cells at 10 uM; assay type: ADME, cell-based
[14] = Metabolic stability in human liver microsomes assessed as half-life at 0.1 uM measured after 60 mins; assay type: ADME, Microsome; conditions: 1 h
[15] = Metabolic stability in human liver microsomes assessed as intrinsic clearance at 0.1 uM measured after 60 mins; assay type: ADME, Microsome; conditions: 1 h
[16] = Drug metabolism in human liver microsomes at 0.1 uM measured after 60 mins; assay type: ADME, Microsome; conditions: 1 h
[17] = target: hERG (KCNH2) (Homo sapiens, UniProt Q12809); experiment: Inhibition of human ERG expressed in CHO cells at 10 uM by electrophysiological analysis relative to control; assay type: toxicity, cell-based; conditions: CHO cells that express human ERG
[18] = Inhibition of DNAJB1-PKAcalpha (unknown origin) overexpressed in mouse NIH/3T3 cells assessed as inhibition of CREB phosphorylation at Ser133 residue preincubated for 30 mins followed by forskolin addition and measured after 30 mins by fluorescence based multilabel reader analysis; assay type: cell-based; conditions: NIH3T3
[19] = target: cAMP-dependent protein kinase catalytic subunit beta (Homo sapiens) (UniProt P22694); experiment: Inhibition of human PKAbeta at 50 nM in presence of ATP by radiometric Hotspot kinase assay
[20] = target: RAC-alpha serine/threonine-protein kinase (Homo sapiens) (UniProt P31749); experiment: Inhibition of human Akt1 at 50 nM in presence of ATP by radiometric Hotspot kinase assay
[21] = target: RAC-beta serine/threonine-protein kinase (Homo sapiens) (UniProt P31751); experiment: Inhibition of human Akt2 at 50 nM in presence of ATP by radiometric Hotspot kinase assay
[22] = target: RAC-gamma serine/threonine-protein kinase (Homo sapiens) (UniProt Q9Y243); experiment: Inhibition of human Akt3 at 50 nM in presence of ATP by radiometric Hotspot kinase assay
[23] = target: Tyrosine-protein kinase JAK1 (Homo sapiens) (UniProt P23458); experiment: Inhibition of human JAK1 at 50 nM in presence of ATP by radiometric Hotspot kinase assay relative to control
[24] = target: Tyrosine-protein kinase JAK2 (Homo sapiens) (UniProt O60674); experiment: Inhibition of human JAK2 at 50 nM in presence of ATP by radiometric Hotspot kinase assay relative to control
[25] = target: Tyrosine-protein kinase JAK3 (Homo sapiens) (UniProt P52333); experiment: Inhibition of human JAK3 at 50 nM in presence of ATP by radiometric Hotspot kinase assay relative to control
[26] = target: NT-3 growth factor receptor (Homo sapiens) (UniProt Q16288); experiment: Inhibition of human TRKC at 50 nM in presence of ATP by radiometric Hotspot kinase assay relative to control
[27] = target: T1, Dual specificity tyrosine-phosphorylation-regulated kinase 2 (Homo sapiens) (UniProt Q92630); experiment: Inhibition of human DYRK2 at 50 nM in presence of ATP by radiometric Hotspot kinase assay relative to control
T1 sequence (whole entry): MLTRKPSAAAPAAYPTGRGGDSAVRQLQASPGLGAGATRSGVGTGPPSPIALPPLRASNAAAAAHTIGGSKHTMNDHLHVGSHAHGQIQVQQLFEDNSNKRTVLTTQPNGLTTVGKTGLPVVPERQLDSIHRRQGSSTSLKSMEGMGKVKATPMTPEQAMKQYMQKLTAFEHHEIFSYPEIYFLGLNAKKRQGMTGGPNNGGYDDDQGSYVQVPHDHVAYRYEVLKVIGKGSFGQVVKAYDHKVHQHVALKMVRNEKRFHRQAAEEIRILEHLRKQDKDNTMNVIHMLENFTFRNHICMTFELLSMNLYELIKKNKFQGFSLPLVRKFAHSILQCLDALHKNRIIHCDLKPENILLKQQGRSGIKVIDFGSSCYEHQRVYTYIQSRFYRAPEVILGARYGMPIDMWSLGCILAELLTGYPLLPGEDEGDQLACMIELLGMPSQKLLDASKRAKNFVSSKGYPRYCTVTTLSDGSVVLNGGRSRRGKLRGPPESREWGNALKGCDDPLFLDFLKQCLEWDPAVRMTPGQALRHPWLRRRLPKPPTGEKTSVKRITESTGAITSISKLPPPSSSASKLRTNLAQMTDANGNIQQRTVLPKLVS

[28] = target: T2, Dual specificity tyrosine-phosphorylation-regulated kinase 3 (Homo sapiens) (UniProt O43781); experiment: Inhibition of human DYRK3 at 50 nM in presence of ATP by radiometric Hotspot kinase assay relative to control
T2 sequence (whole entry): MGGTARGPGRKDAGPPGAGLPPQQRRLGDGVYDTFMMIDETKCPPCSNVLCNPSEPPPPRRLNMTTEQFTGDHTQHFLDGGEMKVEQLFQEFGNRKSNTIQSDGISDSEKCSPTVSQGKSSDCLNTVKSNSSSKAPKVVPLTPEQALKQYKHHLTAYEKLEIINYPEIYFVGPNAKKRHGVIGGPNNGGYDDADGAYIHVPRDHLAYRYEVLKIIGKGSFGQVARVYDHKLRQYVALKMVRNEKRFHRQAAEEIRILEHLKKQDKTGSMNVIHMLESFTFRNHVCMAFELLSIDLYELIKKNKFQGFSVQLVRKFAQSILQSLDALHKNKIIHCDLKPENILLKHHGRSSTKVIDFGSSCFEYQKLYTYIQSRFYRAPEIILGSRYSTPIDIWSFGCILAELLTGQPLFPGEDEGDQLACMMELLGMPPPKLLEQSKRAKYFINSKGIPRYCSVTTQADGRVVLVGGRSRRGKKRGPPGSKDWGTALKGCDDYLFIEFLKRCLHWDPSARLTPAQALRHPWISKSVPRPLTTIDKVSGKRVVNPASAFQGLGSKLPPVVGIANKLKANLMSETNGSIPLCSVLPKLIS

[29] = target: cAMP-dependent protein kinase catalytic subunit alpha (Homo sapiens) (UniProt P17612); conditions: dose 50.0 nM
Description: Inhibition of human PKAalpha at 50 nM in presence of ATP by radiometric Hotspot kinase assay relative to control

[30] = organism: Homo sapiens; experiment: Induction of thermal stabilization of His-tagged DNAJB1-PKAcalpha (unknown origin) incubated for 15 min by differential scanning fluorometric analysis
[31] = target: Receptor-type tyrosine-protein kinase FLT3 (Homo sapiens) (UniProt P36888); experiment: Inhibition of human FLT3 at 50 nM in presence of ATP by radiometric Hotspot kinase assay relative to control
[32] = target: Dual specificity protein kinase CLK1 (Homo sapiens) (UniProt P49759); experiment: Inhibition of human CLK1 at 50 nM in presence of ATP by radiometric Hotspot kinase assay relative to control
[33] = target: Dual specificity protein kinase CLK2 (Homo sapiens) (UniProt P49760); experiment: Inhibition of human CLK2 at 50 nM in presence of ATP by radiometric Hotspot kinase assay relative to control
[34] = target: Dual specificity protein kinase CLK4 (Homo sapiens) (UniProt Q9HAZ1); experiment: Inhibition of human CLK4 at 50 nM in presence of ATP by radiometric Hotspot kinase assay relative to control
[35] = target: Dual specificity tyrosine-phosphorylation-regulated kinase 1A (Homo sapiens) (UniProt Q13627); experiment: Inhibition of human DYRK1A at 50 nM in presence of ATP by radiometric Hotspot kinase assay relative to control
[36] = target: Dual specificity tyrosine-phosphorylation-regulated kinase 1B (Homo sapiens) (UniProt Q9Y463); experiment: Inhibition of human DYRK1B at 50 nM in presence of ATP by radiometric Hotspot kinase assay relative to control
[37] = target: T3, cGMP-dependent protein kinase 1 (Homo sapiens) (UniProt Q13976); conditions: dose 50.0 nM
T3 sequence (whole entry): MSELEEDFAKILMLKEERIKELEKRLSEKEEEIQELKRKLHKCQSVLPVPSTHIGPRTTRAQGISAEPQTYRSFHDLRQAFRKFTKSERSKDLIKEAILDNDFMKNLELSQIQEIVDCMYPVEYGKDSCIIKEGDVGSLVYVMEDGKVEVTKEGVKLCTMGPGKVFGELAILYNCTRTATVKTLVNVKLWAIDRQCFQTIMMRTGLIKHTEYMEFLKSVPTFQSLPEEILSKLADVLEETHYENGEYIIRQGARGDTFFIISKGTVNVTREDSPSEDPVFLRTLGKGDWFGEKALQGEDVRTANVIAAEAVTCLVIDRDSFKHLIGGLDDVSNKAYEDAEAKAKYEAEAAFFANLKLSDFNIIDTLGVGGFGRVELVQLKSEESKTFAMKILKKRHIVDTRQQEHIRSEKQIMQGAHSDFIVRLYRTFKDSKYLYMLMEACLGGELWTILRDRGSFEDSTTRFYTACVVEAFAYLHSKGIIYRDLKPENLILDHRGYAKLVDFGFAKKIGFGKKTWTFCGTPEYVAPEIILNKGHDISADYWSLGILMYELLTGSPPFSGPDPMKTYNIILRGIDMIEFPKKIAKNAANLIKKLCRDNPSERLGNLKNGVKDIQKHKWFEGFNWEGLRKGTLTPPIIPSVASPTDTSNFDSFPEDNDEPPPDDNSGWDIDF
Description: Inhibition of human PKG1alpha at 50 nM in presence of ATP by radiometric Hotspot kinase assay

Sequence of NT-3 growth factor receptor (Homo sapiens) (Q16288 32-839 limits assumed): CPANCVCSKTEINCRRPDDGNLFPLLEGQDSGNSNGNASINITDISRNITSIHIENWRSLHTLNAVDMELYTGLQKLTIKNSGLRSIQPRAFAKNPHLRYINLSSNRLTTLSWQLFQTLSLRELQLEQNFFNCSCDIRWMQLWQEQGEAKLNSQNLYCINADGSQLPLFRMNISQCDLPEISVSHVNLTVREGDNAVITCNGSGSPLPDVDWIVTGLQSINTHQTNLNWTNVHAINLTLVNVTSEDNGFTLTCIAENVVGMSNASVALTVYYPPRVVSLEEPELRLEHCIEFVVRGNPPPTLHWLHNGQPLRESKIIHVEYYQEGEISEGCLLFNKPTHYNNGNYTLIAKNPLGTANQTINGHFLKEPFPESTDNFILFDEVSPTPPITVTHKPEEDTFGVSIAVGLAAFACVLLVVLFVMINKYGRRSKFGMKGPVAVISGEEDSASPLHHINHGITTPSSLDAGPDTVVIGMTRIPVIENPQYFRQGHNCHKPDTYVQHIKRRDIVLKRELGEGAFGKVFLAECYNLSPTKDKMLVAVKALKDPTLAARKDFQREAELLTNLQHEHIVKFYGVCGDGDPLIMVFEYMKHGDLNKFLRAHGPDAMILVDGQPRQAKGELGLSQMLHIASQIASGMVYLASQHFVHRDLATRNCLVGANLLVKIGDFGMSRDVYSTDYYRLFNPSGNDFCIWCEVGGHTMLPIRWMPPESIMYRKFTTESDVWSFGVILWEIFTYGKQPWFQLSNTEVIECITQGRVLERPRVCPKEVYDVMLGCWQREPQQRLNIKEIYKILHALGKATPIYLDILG
Sequence of Albumin (P02768 whole entry): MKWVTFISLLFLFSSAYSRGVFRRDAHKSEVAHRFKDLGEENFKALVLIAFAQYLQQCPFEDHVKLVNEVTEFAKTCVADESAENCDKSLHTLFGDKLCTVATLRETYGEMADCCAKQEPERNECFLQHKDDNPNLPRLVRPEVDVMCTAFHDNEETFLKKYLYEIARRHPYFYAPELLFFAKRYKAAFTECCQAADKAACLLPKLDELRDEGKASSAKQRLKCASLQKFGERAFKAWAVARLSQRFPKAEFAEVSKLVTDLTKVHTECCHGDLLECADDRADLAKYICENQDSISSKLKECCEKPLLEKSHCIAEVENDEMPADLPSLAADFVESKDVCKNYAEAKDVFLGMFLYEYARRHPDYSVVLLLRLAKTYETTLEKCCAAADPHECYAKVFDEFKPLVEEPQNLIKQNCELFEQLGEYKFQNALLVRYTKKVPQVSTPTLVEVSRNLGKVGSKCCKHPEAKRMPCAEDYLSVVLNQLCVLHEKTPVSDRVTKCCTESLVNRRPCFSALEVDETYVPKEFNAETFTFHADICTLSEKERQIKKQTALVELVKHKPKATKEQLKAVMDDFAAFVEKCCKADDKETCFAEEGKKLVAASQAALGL
Sequence of RAC-beta serine/threonine-protein kinase (Homo sapiens) (P31751 whole entry): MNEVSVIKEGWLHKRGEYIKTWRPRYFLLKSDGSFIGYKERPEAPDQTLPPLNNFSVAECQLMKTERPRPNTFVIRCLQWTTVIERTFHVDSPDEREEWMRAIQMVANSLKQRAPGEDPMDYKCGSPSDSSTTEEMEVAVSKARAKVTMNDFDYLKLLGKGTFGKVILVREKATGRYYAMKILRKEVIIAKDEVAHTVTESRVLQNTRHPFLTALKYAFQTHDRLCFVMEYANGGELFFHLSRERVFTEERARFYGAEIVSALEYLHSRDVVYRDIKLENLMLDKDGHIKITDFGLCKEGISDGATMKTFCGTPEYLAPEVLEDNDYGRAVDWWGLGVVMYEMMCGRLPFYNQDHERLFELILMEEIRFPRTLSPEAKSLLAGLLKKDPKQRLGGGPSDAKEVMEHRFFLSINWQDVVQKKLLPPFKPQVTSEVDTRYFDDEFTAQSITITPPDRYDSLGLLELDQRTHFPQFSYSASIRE
Sequence of hERG (KCNH2) (Q12809 whole entry): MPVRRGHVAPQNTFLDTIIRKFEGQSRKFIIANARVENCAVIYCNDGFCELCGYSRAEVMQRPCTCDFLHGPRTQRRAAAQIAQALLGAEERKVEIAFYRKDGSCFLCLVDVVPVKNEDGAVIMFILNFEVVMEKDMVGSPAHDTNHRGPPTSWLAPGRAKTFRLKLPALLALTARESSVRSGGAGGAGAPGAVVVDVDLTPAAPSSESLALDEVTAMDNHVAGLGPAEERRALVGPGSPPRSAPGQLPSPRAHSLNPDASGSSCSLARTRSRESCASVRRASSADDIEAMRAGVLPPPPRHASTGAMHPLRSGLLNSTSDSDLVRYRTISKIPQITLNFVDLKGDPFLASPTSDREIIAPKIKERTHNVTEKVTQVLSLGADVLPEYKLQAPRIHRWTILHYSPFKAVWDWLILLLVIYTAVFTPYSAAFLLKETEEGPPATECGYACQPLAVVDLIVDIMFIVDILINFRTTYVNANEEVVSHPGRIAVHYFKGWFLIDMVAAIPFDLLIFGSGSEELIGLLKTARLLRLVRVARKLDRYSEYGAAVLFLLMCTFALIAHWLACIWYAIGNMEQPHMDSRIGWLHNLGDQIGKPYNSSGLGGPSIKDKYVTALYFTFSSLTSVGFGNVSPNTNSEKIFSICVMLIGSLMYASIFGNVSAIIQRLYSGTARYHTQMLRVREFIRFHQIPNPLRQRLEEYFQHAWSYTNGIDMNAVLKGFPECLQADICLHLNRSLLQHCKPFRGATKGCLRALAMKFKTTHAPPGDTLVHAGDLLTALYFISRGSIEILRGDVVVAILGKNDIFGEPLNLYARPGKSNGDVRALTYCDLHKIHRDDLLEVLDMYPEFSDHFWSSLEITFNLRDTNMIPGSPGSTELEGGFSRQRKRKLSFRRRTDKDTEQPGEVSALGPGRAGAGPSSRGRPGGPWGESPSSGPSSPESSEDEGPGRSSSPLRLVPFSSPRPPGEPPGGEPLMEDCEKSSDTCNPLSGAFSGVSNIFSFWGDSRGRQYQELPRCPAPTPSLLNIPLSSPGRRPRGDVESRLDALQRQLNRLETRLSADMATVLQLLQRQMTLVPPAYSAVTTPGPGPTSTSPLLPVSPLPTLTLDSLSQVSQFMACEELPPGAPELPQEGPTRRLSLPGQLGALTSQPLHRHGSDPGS
Sequence of RAC-gamma serine/threonine-protein kinase (Homo sapiens) (Q9Y243 whole entry): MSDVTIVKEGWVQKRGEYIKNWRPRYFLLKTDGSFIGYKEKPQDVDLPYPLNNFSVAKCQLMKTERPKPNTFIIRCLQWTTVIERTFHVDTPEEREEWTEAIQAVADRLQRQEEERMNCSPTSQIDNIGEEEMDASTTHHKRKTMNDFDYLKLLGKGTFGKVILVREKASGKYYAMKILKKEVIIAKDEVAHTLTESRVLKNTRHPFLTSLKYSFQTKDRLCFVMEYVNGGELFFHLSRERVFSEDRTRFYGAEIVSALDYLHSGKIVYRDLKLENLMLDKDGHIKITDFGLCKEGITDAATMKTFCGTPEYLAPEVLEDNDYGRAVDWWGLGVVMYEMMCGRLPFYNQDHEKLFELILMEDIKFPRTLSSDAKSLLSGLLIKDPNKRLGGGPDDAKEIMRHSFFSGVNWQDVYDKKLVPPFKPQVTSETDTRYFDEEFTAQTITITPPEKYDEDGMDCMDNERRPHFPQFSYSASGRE
Sequence of RAC-alpha serine/threonine-protein kinase (Homo sapiens) (P31749 whole entry): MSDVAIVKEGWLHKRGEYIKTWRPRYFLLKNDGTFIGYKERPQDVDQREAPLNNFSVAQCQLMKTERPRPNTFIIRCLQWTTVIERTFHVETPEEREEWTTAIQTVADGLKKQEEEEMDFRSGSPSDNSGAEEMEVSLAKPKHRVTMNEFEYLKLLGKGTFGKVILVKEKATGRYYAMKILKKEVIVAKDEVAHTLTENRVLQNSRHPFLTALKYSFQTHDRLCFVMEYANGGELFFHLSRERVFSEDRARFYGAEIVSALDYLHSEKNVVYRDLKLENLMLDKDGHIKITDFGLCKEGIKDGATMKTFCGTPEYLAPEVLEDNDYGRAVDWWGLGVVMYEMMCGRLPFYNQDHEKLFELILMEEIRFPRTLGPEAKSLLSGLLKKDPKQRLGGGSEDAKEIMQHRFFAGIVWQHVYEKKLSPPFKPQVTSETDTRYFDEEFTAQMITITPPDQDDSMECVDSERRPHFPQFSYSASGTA
Sequence of Dual specificity protein kinase CLK2 (Homo sapiens) (P49760 whole entry, looked up): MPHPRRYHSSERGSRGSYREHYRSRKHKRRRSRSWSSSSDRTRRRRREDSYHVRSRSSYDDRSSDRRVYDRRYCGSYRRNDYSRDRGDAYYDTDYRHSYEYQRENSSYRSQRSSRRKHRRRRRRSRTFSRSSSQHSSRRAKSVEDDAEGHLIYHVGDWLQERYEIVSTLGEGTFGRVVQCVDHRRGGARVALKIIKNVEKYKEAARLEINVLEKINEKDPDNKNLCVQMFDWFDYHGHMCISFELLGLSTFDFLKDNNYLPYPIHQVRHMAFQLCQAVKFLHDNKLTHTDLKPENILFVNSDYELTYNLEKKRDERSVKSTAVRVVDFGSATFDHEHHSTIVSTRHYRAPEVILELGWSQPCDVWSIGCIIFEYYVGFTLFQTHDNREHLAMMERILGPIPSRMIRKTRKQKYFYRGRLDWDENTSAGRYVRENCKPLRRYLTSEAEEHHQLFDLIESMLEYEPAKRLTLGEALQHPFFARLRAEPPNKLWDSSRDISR
Sequence of Dual specificity protein kinase CLK1 (Homo sapiens) (P49759 whole entry, looked up): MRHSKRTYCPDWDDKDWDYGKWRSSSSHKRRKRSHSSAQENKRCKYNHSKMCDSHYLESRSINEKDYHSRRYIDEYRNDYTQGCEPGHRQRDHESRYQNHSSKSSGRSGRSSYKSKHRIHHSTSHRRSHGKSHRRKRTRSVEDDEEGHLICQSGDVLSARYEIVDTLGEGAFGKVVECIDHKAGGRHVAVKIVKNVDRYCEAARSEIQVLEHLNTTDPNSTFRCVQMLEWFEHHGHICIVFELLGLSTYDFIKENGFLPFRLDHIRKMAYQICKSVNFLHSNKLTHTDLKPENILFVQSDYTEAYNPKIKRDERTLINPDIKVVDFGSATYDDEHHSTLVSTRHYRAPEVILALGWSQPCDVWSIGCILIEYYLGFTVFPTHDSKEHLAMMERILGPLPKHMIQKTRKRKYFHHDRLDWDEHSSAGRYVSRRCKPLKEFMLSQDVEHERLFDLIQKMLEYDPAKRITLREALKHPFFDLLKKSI

SMILES | IC50 [1] [nM] | GI50 [2] [nM] | Activity [3] | Activity [5] | GI50 [6] [nM] | Activity [8] | solubility thermodynamic [9] [µM] | PB [10] [%] | Papp [11] | Papp [12] | t1/2 [14] [h] | CLH [15] [µL/min/mg] | Drug metabolism [16] | inhibition at 10 µM [17] [%] | IC50 [18] [nM] | Activity [4] | Activity [7] | inhibition [19] | inhibition [20] | inhibition [21] | further results
C1=C(c2ccnc3[nH]ccc23)SCCN1c1ccnc2[nH]ccc12 | 2800 | 1550 | inactive | Active | > 1000 | inactive |  |  |  |  |  |  |  |  |  |  |  |  |  |  | LC50 [4]: 780 nM; LC50 [7]: 600 nM
O=C(N[C@@H](c1ccccc1)[C@H]1CCCN1)C1=CN(c2ncnc3[nH]ccc23)CCS1 | 6 |  | inactive | Active | 40 | inactive | > 200 | 84 | 0.3 10^-6 cm/s | 19.7 10^-6 cm/s | > 1 | < 115 | metabolite_notdetected | 33 | 660 | Active | Active | Active | Active | Active | efflux ratio at 10 µM [13]: 66; inhibition [22]: Active; inhibition [23]: > 50%; inhibition [24]: > 50%; inhibition [25]: > 50%; inhibition [26]: > 50%; inhibition [27]: Active; inhibition [28]: Active; inhibition [29]: Active
Cc1c[nH]c2ncnc(N3C=C(C(=O)N4CCC[C@@H](N)C4)SCC3)c12 |  |  | inactive | Active | > 1000 | inactive | > 200 | 84 | 0.1 10^-6 cm/s | 6.6 10^-6 cm/s | > 1 | < 115 | metabolite_notdetected | 28 | 3400 | Active | Active | Active | Active | Active | Activity [30]: Dose-dependent-effect; inhibition [22]: Active; inhibition [31]: > 50%; inhibition [26]: > 50%; inhibition [32]: Active; inhibition [33]: Active; inhibition [34]: Active; inhibition [35]: Active; inhibition [36]: Active; inhibition [37]: Active
Cn1c(Br)nc(Br)c1C1=CN(c2ncnc3[nH]cnc23)CCS1 |  | 360 | inactive | Active | > 1000 | inactive |  |  |  |  |  |  |  |  |  | Active | Active |  |  |  | 
